Measurements: a compilation of properties of binary mixtures (doi:10.1039/c7cp04592a)

Experiment: xn = mol fraction of the nth substance listed
Conditions: 100 kPa

CC#N + CC[NH3+].O=[N+]([O-])[O-]
x2 = 0
Conditions | viscosity [mPa·s]
288.07 K | 0.408
293.1 K | 0.371
298 K | 0.35
298.12 K | 0.352
303.13 K | 0.321

CC[NH3+].O=[N+]([O-])[O-] + CC#N
Conditions | electrical conductivity [S/m] | viscosity [mPa·s]
278 K, x1 = 0.1 | 1.12 | –
278 K, x1 = 0.2 | 2.29 | –
278 K, x1 = 0.5 | 2.85 | –
278 K, x1 = 0.7 | 2 | –
278 K, x1 = 0.9 | 1.59 | –
288 K, x1 = 0.1 | 1.32 | –
288 K, x1 = 0.2 | 2.85 | –
288 K, x1 = 0.3 | 3.41 | –
288 K, x1 = 0.5 | 3.77 | –
288 K, x1 = 0.9 | 2.27 | –
288.06 K, x1 = 0.6 | – | 13.65
288.06 K, x1 = 0.8 | – | 31.4
288.06 K, x1 = 0.9 | – | 40.5
288.06 K, x1 = 1 | – | 44.4
288.07 K, x1 = 0.1 | – | 0.815
288.09 K, x1 = 0.2 | – | 1.615
288.09 K, x1 = 0.4 | – | 5.47
288.09 K, x1 = 0.5 | – | 8.6
293.06 K, x1 = 0.4 | – | 4.9
293.07 K, x1 = 0.2 | – | 1.458
293.08 K, x1 = 0.8 | – | 26.09
293.08 K, x1 = 0.9 | – | 34
293.08 K, x1 = 0.98 | – | 36.9
293.08 K, x1 = 1 | – | 37.2
293.09 K, x1 = 0.5 | – | 7.45
293.09 K, x1 = 0.6 | – | 11.54
293.1 K, x1 = 0.1 | – | 0.754
293.11 K, x1 = 0.7 | – | 17.86
298 K, x1 = 0.1 | 1.69 | 0.685
298 K, x1 = 0.2 | 3.96 | 1.374
298 K, x1 = 0.3 | 4.71 | 2.451
298 K, x1 = 0.4 | – | 4.07
298 K, x1 = 0.5 | 5 | 6.37
298 K, x1 = 0.6 | – | 9.92
298 K, x1 = 0.8 | – | 20.97
298 K, x1 = 0.9 | 3.14 | 27.58
298 K, x1 = 0.98 | – | 32
298 K, x1 = 1 | 2.26 | 32.7
298.05 K, x1 = 0.8 | – | 21.52
298.07 K, x1 = 1 | – | 33.9
298.08 K, x1 = 0.7 | – | 15.22
298.08 K, x1 = 0.9 | – | 28.01
298.11 K, x1 = 0.3 | – | 2.463
298.11 K, x1 = 0.4 | – | 4.11
298.11 K, x1 = 0.5 | – | 6.46
298.13 K, x1 = 0.6 | – | 10.08
298.14 K, x1 = 0.1 | – | 0.698
303.08 K, x1 = 0.7 | – | 12.25
303.09 K, x1 = 0.3 | – | 2.396
303.1 K, x1 = 0.1 | – | 0.651
303.11 K, x1 = 0.4 | – | 4.16
303.11 K, x1 = 0.5 | – | 6.13
303.11 K, x1 = 0.6 | – | 8.74
303.11 K, x1 = 0.9 | – | 24.88
303.12 K, x1 = 0.2 | – | 1.16
303.13 K, x1 = 1 | – | 30.58
303.14 K, x1 = 0.98 | – | 29.95
303.16 K, x1 = 0.8 | – | 17.9
308 K, x1 = 0.1 | 2.38 | –
308 K, x1 = 0.3 | 6.28 | –
308 K, x1 = 0.5 | 6.3 | –
308 K, x1 = 0.9 | 4.21 | –
308 K, x1 = 1 | 3.07 | –
308.11 K, x1 = 1 | – | 26.5
308.12 K, x1 = 0.4 | – | 3.98
308.13 K, x1 = 0.2 | – | 1.074
308.14 K, x1 = 0.98 | – | 24.9
308.15 K, x1 = 0.5 | – | 5.77
308.16 K, x1 = 0.1 | – | 0.618
